{
  "source": "patent US20150164762A1",
  "about": "“USE OF ETHANOLAMINE PHOSPHATE” (priority 2012, published 2015)",
  "key": {"HBEpC cells": {"system": "HBEpC cells", "assay": "WST-8 proliferation test, primary normal human airway epithelial cells (HBEpC)", "format": "cell-based", "experimental": "BEGM (Takara Bio, complete medium) was used as the medium. […] Following medium replacement, 10 μl per well of an EP solution of 10 times the set concentration was added, and after 96 hours a proliferation test (WST-8 assay) was performed."}, "NHLF cells": {"system": "NHLF cells", "assay": "WST-8 proliferation test, primary normal human lung fibroblasts (NHLF)", "format": "cell-based", "conditions": "0% FBS DMEM, 124 hours", "text": "10% FBS-DMEM was used as the medium."}, "HL-60": {"system": "HL-60", "assay": "WST-8 proliferation test, HL-60 floating cells", "format": "cell-based, human", "conditions": "0% FBS, 72 hours, even at high concentrations", "experimental": "THP-1 (human acute monocytic leukemia cells) and HL-60 (human myeloid leukemia cells) were logarithmically growth cultured in 10% FBS RPMI-1640 to 2 to 10×10^5 cells/cm^2 to achieve logarithmic growth before EP administration. The cell culture liquid was then centrifuged and precipitated at 1000 rpm, and 90 μl per well was dispensed onto a 96-well plate to 2×10^4 cells/cm^2 in 0% FBS RPMI-1640. […] For the WST-8 assay of the floating cells, 10 μl per well of WST-8 assay reagent was added directly to the cell suspension during culture, and after 1 hour absorbance at 450 nm and 600 nm was measured with a plate reader and the data were analyzed as in the examples above."}, "Calu-3 cells": {"system": "Calu-3 cells", "assay": "Transepithelial electrical resistance (TER), Calu-3", "format": "cell-based, human", "conditions": "1 mM EP, 0.1% FBS", "experimental": "Calu-3 cells were seeded to 3×10^5 cells/cm^2 on a cell culture insert (353104, BD Falcon). They were cultured until confluent in 10% FBS RPMI-1640, and once confluence was reached, 0.1% FBS RPMI-1640 containing the following was substituted, and the medium was replaced every day. TER was measured as in Example 11. The results are shown in FIG. 15. • Condition 1: Control • Condition 2: 1 μM dexamethasone • Condition 3: 1 mM EP"}, "HEKa cells [1]": {"system": "HEKa cells", "assay": "WST-8 proliferation test, primary normal keratinocytes (HEKa)", "format": "cell-based, human", "conditions": "Epilife basal medium, 21 days", "experimental": "HEKa cells (Takara Bio) were seeded to 2×10^4 cells/cm^2 on a 48-well plate. Epilife basal medium (M-EPI-500-CA, Invitrogen) with HKGS Kit (S-001-K, Invitrogen) as an added factor was used as the medium. This HKGS Kit contains bovine pituitary extract, bovine insulin, hydrocortisone, bovine transferrin and human EGF."}, "HEKa cells [2]": {"system": "HEKa cells", "assay": "Transepithelial electrical resistance (TER), HEKa", "format": "cell-based, human", "conditions": "1 mM EP", "experimental": "HEKa cells were seeded to 6×10^4 cells/cm^2 on a cell culture insert (353104, BD Falcon). Culture was performed in complete medium consisting of HKGS Kit (S-001-K, Invitrogen) added to Epilife basal medium (M-EPI-500-CA, Invitrogen), and once confluence was reached, a medium containing […] the specific compounds listed under Conditions 1 to 3 above was substituted for the complete medium, and medium replacement was performed once a day. TER was measured as in Example 11."}, "BEAS-2B [3]": {"system": "BEAS-2B", "assay": "Transepithelial electrical resistance (TER), BEAS-2B", "format": "cell-based, human", "conditions": "EP 1 mM, 1% FBS", "experimental": "Cells of the established normal human airway epithelial cell line BEAS-2B were seeded to 1×10^5 cells/cm^2 on a cell culture insert (353104, BD Falcon) (FIG. 14). 10% FBS RPMI-1640 was used as the medium. The amount of medium was 200 μl on the insert side and 750 μl on the well side. Beginning the next day, substitution/medium replacement was performed once a day with 1% FBS RPMI-1640 prepared with the following 4 reagent conditions, and transepithelial electrical resistance (TER) was measured with MilliCell (Millipore). • Condition 1: Control • Condition 2: EP 1 mM • Condition 3: Dexamethasone 1 μM (dexamethasone (Dex): positive control substance known to enhance barrier function) • Condition 4: EP 1 mM and Dex 1 μM"}, "caspase 3/7": {"system": "caspase 3/7", "assay": "Serum-free stress-induced caspase 3/7 activity (Caspase-Glo3/7 assay) per cell", "format": "cell-based, human", "conditions": "0% FBS, 24 hours", "experimental": "After medium replacement, 10 μl per well of EP or FBS solution was added. After 24 hours, a proliferation test (WST-8 assay) and caspase 3/7 assay (Caspase-Glo3/7 assay, Promega) were performed. […] Caspase 3/7 activity was measured by a luminescence test, the blank average was subtracted, and this was divided by the corrected absorbance (corresponding to relative cell number) from the WST-8 assay to calculate the caspase 3/7 activity per cell."}, "BEAS-2B [4]": {"system": "BEAS-2B", "assay": "Suppression of the proliferative effect of EP by a MEK 1/2 inhibitor (WST-8)", "format": "cell-based, human", "conditions": "250 μM EP, no MEK 1/2 inhibitor, 0.1% FBS, 72 hours"}, "TNF-α": {"system": "TNF-α", "assay": "ELISA of TNF-α secreted from THP-1 cells, with or without LPS", "format": "cell-based, human", "experimental": "(§1) Human monocytic cultured THP-1 cells were cultured logarithmically as follows in 10% FBS RPMI-1640 growth culture. Cells were seeded to 4×10^5/ml on a 24-well plate (500 μl/well), additional growth culture containing EP was added, and finally the EP concentration was adjusted to the target concentration (0.1 mM, 1 mM). 2 hours after EP administration, further growth medium containing lipopolysaccharides (LPS) was added, and adjusted to concentrations of 0.1 μg/ml and 1 μg/ml.\n(§2) 4 hours and 24 hours after lipopolysaccharide administration, the medium was collected, the cells were precipitated by centrifugation, and the supernatant was used as an ELISA sample. As in the Singh et al. report, the inflammatory cytokine TNF-α and the chemokine IL-8, which attracts inflammatory cells, were used as ELISA measurement indicators."}, "IL-8": {"system": "IL-8", "assay": "ELISA of IL-8 secreted from THP-1 cells, with or without LPS", "format": "cell-based, human", "experimental": "as §1, §2"}, "HHDPC cells": {"system": "HHDPC cells", "assay": "WST-8 proliferation test, primary normal human hair dermal papilla cells (HHDPC)", "experimental": "HHDPC cells (Cosmo Bio) were seeded to 1×10^4 cells/cm^2 on a 96-well plate. Complete MSCM medium (500, ScienCell) was used as the medium. After 24 hours, the cells were washed gently with 200 μl per well of PBS, the medium was replaced with 90 μl per well of 0% FBS DMEM with 1 vol % of complete MSCM medium added thereto, and the cells were cultured for 24 hours. After culture, 10 μl per well of EP solution was added, and a proliferation test (WST-8 assay) was performed 6 days after EP administration. The WST-8 assay was performed as in Example 1. The same test was performed using minoxidil, which has a clinical hair growth effect."}, "[5]": {"conditions": "4 hours and 24 hours of stimulus, EP 0.1 mM, 1 mM"}, "[6]": {"conditions": "cells not treated with LPS, 26 hours, 1 mM EP"}},
  "data": [
    {"smiles": "NCCOP(=O)(O)O", "note": "[EP, Ethanolamine phosphate]", "values": [
      {"measurement": "growth-stimulating effect", "setting": "HBEpC cells; 7 μM, BEBM basal medium, 96 hours", "value": "roughly two-fold"},
      {"measurement": "toxicity", "setting": "HBEpC cells; mM level", "value": "no toxicity"},
      {"measurement": "growth-stimulating effect", "setting": "NHLF cells", "value": "growth-stimulating effect"},
      {"measurement": "cell proliferation ability", "setting": "HL-60", "value": "absolutely no cell proliferation ability"},
      {"measurement": "rise in TER value relative to the control", "setting": "Calu-3 cells", "value": 2.0, "unit": "fold"},
      {"measurement": "growth-stimulating effect", "setting": "HEKa cells [1]", "value": "growth-stimulating effect"},
      {"measurement": "minimum concentration giving roughly the maximum growth-stimulating effect", "setting": "HEKa cells [1]", "value": 15.6, "unit": "µM"},
      {"measurement": "rise in TER value relative to the control", "setting": "HEKa cells [2]", "value": 2.3, "unit": "fold"},
      {"measurement": "increase in TER", "setting": "BEAS-2B [3]", "value": 49, "unit": "%"},
      {"measurement": "FBS concentration whose effect EP 1000 μM corresponds to (regression curve)", "setting": "caspase 3/7", "value": 2.2, "unit": "%"},
      {"measurement": "caspase 3/7 activity per cell", "setting": "caspase 3/7; 1000 μM", "value": "about 0.72 fold"},
      {"measurement": "cell proliferation", "setting": "BEAS-2B [4]", "value": "roughly 3 fold"},
      {"measurement": "secretion of LPS-induced TNF-α", "setting": "TNF-α; [5]", "value": "dose-dependently suppressed"},
      {"measurement": "amount of TNF-α induced by LPS stimulus", "setting": "TNF-α; LPS 1 μg/ml, 24 hours of stimulus, EP 1 mM", "value": "about 70 pg/ml"},
      {"measurement": "TNF-α secretion, reduced to % of untreated", "setting": "TNF-α; [6]", "value": "about 78%"},
      {"measurement": "secretion of LPS-induced IL-8", "setting": "IL-8; [5]", "value": "dose-dependently suppressed"},
      {"measurement": "IL-8 secretion, reduced to % of untreated", "setting": "IL-8; [6]", "value": "about 43%"},
      {"measurement": "effective concentration range for proliferative effect", "setting": "HHDPC cells; 6 days", "value": "very broad concentration range"},
      {"measurement": "proliferative effect", "setting": "HHDPC cells; 6 days", "value": "equal to or greater than that of minoxidil"},
      {"measurement": "cell toxicity", "setting": "HHDPC cells; high concentrations", "value": "non-toxic"}
    ]}
  ]
}
